Among the data in BindingDB's records for doi:10.7270/Q2222S6W (University of Pittsburgh, 2007) are IC50 values, retold here.

Where a name gives a salt, the structure may show the parent alone. Bounds are passed on as bounds.

This assay deals with Genome polyprotein (West Nile virus, UniProt P06935). Description: West Nile NS2B-NS3 proteinase blockers – biochemical, confirmation, dose response (AID 653).
Chain of Genome polyprotein (P06935 1371-1501 limits assumed): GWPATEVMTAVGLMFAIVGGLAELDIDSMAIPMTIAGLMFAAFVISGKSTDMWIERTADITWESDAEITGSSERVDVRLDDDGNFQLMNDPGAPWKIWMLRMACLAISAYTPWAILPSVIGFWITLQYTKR
Chain of Genome polyprotein (P06935 1502-2120 limits assumed): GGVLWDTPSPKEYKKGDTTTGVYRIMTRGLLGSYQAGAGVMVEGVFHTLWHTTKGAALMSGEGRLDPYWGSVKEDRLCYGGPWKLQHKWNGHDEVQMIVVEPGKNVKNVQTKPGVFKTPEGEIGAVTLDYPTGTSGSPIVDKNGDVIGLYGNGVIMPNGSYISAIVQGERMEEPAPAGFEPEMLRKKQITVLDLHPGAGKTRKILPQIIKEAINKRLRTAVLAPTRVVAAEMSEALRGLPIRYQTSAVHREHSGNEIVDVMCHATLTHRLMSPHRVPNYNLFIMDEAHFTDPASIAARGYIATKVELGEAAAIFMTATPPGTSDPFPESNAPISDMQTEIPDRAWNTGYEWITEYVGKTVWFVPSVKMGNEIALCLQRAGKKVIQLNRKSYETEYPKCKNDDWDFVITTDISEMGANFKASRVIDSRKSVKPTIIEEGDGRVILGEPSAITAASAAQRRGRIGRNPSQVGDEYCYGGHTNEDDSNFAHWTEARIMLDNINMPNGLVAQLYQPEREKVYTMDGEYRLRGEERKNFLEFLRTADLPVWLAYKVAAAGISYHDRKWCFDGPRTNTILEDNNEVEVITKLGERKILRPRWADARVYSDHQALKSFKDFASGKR

`OC[C@H]1O[C@@H](n2cnc3c(NC4CCCC4)ncnc32)[C@H](O)[C@@H]1O` registered a half-maximal inhibitory concentration (IC50) of over 50 µM. With `COc1ccc(C2=Nn3c(nnc3-c3ccc(OC)cc3)SC2)cc1`, the half-maximal inhibitory concentration (IC50) was over 50 µM. Next, `Cc1ccc(S(=O)(=O)n2nc(OC(=O)c3cccs3)cc2N)cc1`: 2.41 µM; `Nc1cc(OC(=O)c2ccco2)nn1S(=O)(=O)c1ccc(F)cc1`: 1.65 µM.

For the compound `N[C@@H](Cc1ccc(O)c(I)c1)C(=O)O`, the concentration for half-maximal inhibition (IC50) was over 50 µM. Compound `CCCC(=O)Nc1ccc(NC(=O)C23CC4CC(CC(C4)C2)C3)cn1` had a half-inhibitory concentration (IC50) of over 50 µM.

Turning to `COc1ccccc1-n1c(SCC(=O)N2CCOCC2)nc(O)c(Cc2ccccc2)c1=O`, the IC50 was over 50 µM. Under `CCOC(=O)C1=C[C@]2(CC)CCCN3CCc4c(n1c1ccccc41)[C@@H]32` stands over 50 µM. Next, `O=C(O)c1cc(-c2ccc(F)cc2F)ccc1O`: over 50 µM; `CN1C(=O)N(CN2CCCCC2)C2C1N(C)C(=O)N2CN1CCCCC1` (configuration not stated) [1,6-dimethyl-3,4-bis(1-piperidinylmethyl)-3a,6a-dihydroimidazo[4,5-d]imidazole-2,5-dione]: over 50 µM; `Cc1ccc(NC(=O)C2CCN(S(=O)(=O)c3cccc4nonc34)CC2)nc1` [1-(2,1,3-benzoxadiazol-4-ylsulfonyl)-N-(5-methyl-2-pyridinyl)-4-piperidinecarboxamide]: over 50 µM.

Consider `O=C(c1cccs1)N1CCN(C(=O)c2ccco2)c2ccccc2C1` [1-(2-furoyl)-4-(thien-2-ylcarbonyl)-2,3,4,5-tetrahydro-1H-1,4-benzodiazepine], for which the IC50 is over 50 µM. In turn, `CCOC(=O)C1CCN(S(=O)(=O)c2ccc(C(=O)OC)cc2)CC1` [1-(4-Methoxycarbonyl-benzenesulfonyl)-piperidine-4-carboxylic acid ethyl ester] came in with a half-maximal inhibitory concentration (IC50) of over 50 µM. Compound `CCSc1nnc(NC(=O)NCC(F)(F)F)s1` [1-(5-ethylsulfanyl-1,3,4-thiadiazol-2-yl)-3-(2,2,2-trifluoroethyl)urea] yielded an IC50 of over 50 µM. Next, `Cc1cc(N2CCC(C(=O)NC3CCCCC3)CC2)nc(-c2ccccc2)n1` [1-(6-Methyl-2-phenyl-pyrimidin-4-yl)-piperidine-4-carboxylic acid cyclohexylamide]: over 50 µM; `CCCCNC(=O)NS(=O)(=O)c1ccc(C)cc1` [1-Butyl-3-(p-methylphenylsulfonyl)urea]: over 50 µM; `CC(C)c1nnc(NC(=O)c2c(O)n3c4c(cccc4c2=O)CCC3)s1` [1-Hydroxy-3-oxo-6,7-dihydro-3H,5H-pyrido[3,2,1-ij]quinoline-2-carboxylic acid (5-isopropyl-[1,3,4]thiadiazol-2-yl)-amide]: over 50 µM. Under `COc1cccc(CNC(=O)C2CCN(S(=O)(=O)c3ccc4c(c3)CCC(=O)N4)CC2)c1` [1-[(2-keto-3,4-dihydro-1H-quinolin-6-yl)sulfonyl]-N-m-anisyl-isonipecotamide] stands over 50 µM; under `CC(CC1(O)C(=O)N(Cc2ccccc2)c2ccccc21)N=O` (configuration not stated) [1-benzyl-3-(2-hydroximinopropyl)-3-hydroxy-oxindole], over 50 µM; under `CC(C)n1c(-c2cccnc2)nc2cnccc21` [1-isopropyl-2-(3-pyridyl)imidazo[4,5-c]pyridine], over 50 µM. Under `Cn1cc(C(=O)NCN2CCCCC2)c2ccccc21` [1-methyl-N-(1-piperidinylmethyl)-3-indolecarboxamide;hydrochloride] stands over 50 µM.

The compound `OC(CNCCCN1CCCCC1)COc1ccccc1` (configuration not stated) [1-phenoxy-3-(3-piperidin-1-ylpropylamino)propan-2-ol;hydrochloride] displayed a 50% inhibitory concentration (IC50) of over 50 µM. Under `CC1=C(C#N)C(=O)OC(C)(C)C1` [2,2,4-trimethyl-6-oxidanylidene-3H-pyran-5-carbonitrile] stands over 50 µM. Turning to `Cc1cnc(NC(=O)C(C)N2C(=O)C3CC=CCC3C2=O)s1` (configuration not stated) [2-(1,3-diketo-3a,4,7,7a-tetrahydroisoindol-2-yl)-N-(5-methylthiazol-2-yl)propionamide], the IC50 is over 50 µM. `O=C(OCCN1C(=O)c2ccccc2C1=O)c1cc(S(=O)(=O)N2CCOCC2)ccc1F` [2-(1,3-dioxoisoindol-2-yl)ethyl 2-fluoro-5-morpholin-4-ylsulfonylbenzoate] had an IC50 of over 50 µM. Consider `COc1ccc(OC)c(C2C(C(N)=O)C(C)=Nc3nc(-c4cccc(Cl)c4)nn32)c1` (configuration not stated) [2-(3-chlorophenyl)-7-(2,5-dimethoxyphenyl)-5-methyl-1,7-dihydro-[1,2,4]triazolo[1,5-a]pyrimidine-6-carboxamide], for which the 50% inhibitory concentration (IC50) was over 50 µM. Under `CCc1cccc2c(C#N)cn(CC(=O)NCc3ccco3)c12` [2-(3-cyano-7-ethyl-1-indolyl)-N-(2-furanylmethyl)acetamide] stands over 50 µM; under `Cc1cccn2c(=O)c(/C=N/Cc3ccco3)c(Nc3ccc(Cl)cc3)nc12` [2-(4-chloroanilino)-3-(2-furanylmethyliminomethyl)-9-methyl-4-pyrido[1,2-a]pyrimidinone], over 50 µM.

`CCC(=O)N1CCc2cc(Br)cc(S(=O)(=O)CC(=O)OC)c21` [2-(5-bromo-1-propionyl-indolin-7-yl)sulfonylacetic acid methyl ester] gave a half-maximal inhibitory concentration (IC50) of over 50 µM. Compound `COC(=O)c1c(NC(=O)C2CC2)sc2c1CCCC2` [2-(cyclopropanecarbonylamino)-4,5,6,7-tetrahydrobenzothiophene-3-carboxylic acid methyl ester] showed an IC50 of over 50 µM. Under `COc1cccc(NC(=O)CSc2nc3nnc(C)c-3c(N)n2-c2cccc(OC)c2)c1` [2-[4-amino-5-(3-methoxyphenyl)-3-methylpyrazolo[3,4-d]pyrimidin-6-yl]sulfanyl-N-(3-methoxyphenyl)acetamide] stands over 50 µM. Take `C=CCn1c(SCC(=O)OC)nc2sc3c(c2c1=O)CCN(C)C3` [2-[(3-allyl-4-keto-7-methyl-6,8-dihydro-5H-pyrido[2,3]thieno[2,4-b]pyrimidin-2-yl)thio]acetic acid methyl ester]: the IC50 is over 50 µM. Compound `CCOC(=O)CNC(=O)C(Cc1ccccc1)NS(=O)(=O)c1cccs1` (configuration not stated) [2-[[1-oxo-3-phenyl-2-(thiophen-2-ylsulfonylamino)propyl]amino]acetic acid ethyl ester] displayed a concentration for half-maximal inhibition (IC50) of over 50 µM. With `COc1ccc(NC=C2C(=O)CCCC2=O)cc1` [2-[[(4-methoxyphenyl)amino]methylidene]cyclohexane-1,3-dione], 34.1 µM corresponded to half-maximal inhibition (IC50). The compound `CCc1nc(N)c(C#N)c(-c2cccn2C)c1C` [2-amino-6-ethyl-5-methyl-4-(1-methylpyrrol-2-yl)pyridine-3-carbonitrile] registered an IC50 of over 50 µM. `CC(C[N+](C)(C)C)OC(N)=O` (configuration not stated) [2-aminocarbonyloxypropyl(trimethyl)azanium;chloride] had an IC50 of over 50 µM. The compound `Nc1cc(OC(=O)c2ccccc2Br)nn1S(=O)(=O)c1ccccc1` [2-bromobenzoic acid (5-amino-1-besyl-pyrazol-3-yl) ester] displayed an IC50 of 1.26 µM. `COc1ccc(S(=O)(=O)n2nc(OC(=O)c3ccccc3Br)cc2N)cc1` [2-bromobenzoic acid [5-amino-1-(4-methoxyphenyl)sulfonyl-3-pyrazolyl] ester] yielded an IC50 of 0.297 µM. In the case of `COc1ccc(S(=O)(=O)n2nc(OC(=O)c3cccs3)cc2N)cc1` [2-thiophenecarboxylic acid [5-amino-1-(4-methoxyphenyl)sulfonyl-3-pyrazolyl] ester], the half-maximal inhibitory concentration (IC50) is 0.11 µM. Under `CCOC(=O)c1[nH]c2ccccc2c1NC(=O)CC` [3-(1-oxopropylamino)-1H-indole-2-carboxylic acid ethyl ester] stands over 50 µM; under `Brc1cccc(-c2cnc3n2CCCCC3)c1` [3-(3-bromophenyl)-6,7,8,9-tetrahydro-5H-imidaz[1,2-a]azepine;hydrochloride], over 50 µM. `O=S(=O)(c1ccc(Cl)cc1)N1CN2CCN(C2)C1` [3-(4-Chloro-benzenesulfonyl)-1,3,5-triaza-bicyclo[3.2.1]octane] yielded an IC50 of over 50 µM.

`CC(=O)N1CCN(C(=O)c2cccc(S(=O)(=O)Nc3ccc(C)cc3)c2)CC1` [3-(4-acetylpiperazine-1-carbonyl)-N-(4-methylphenyl)benzenesulfonamide] displayed an IC50 of over 50 µM. The compound `COc1ccc2[nH]c(C(=O)O)c(CCNC(C)=O)c2c1` [3-[2-(acetylamino)ethyl]-5-methoxy-1H-indole-2-carboxylic acid] came in with a concentration for half-maximal inhibition (IC50) of over 50 µM. `COc1cccc2cc(-c3csc(CCn4nc(C)cc4C)n3)c(=O)oc12` [3-[2-[2-(3,5-dimethyl-1-pyrazolyl)ethyl]-4-thiazolyl]-8-methoxy-1-benzopyran-2-one] had an IC50 of over 50 µM. Take `O=C(c1cc2ccccc2oc1=O)N1CCN(c2ccc(N3CCOCC3)nn2)CC1` [3-[4-(6-morpholin-4-ylpyridazin-3-yl)piperazin-1-yl]carbonylchromen-2-one]: the 50% inhibitory concentration (IC50) was over 50 µM. Consider `CCn1cc(C(=O)Nc2cccc(C(=O)OC)c2)c(=O)c2ccc(C)nc21` [3-[(1-Ethyl-7-methyl-4-oxo-1,4-dihydro-[1,8]naphthyridine-3-carbonyl)-amino]-benzoic acid methyl ester], for which the IC50 is over 50 µM.

In the case of `CC(C)NCc1c(O)c(Br)cc2oc3c(c12)CCCC3` [3-bromanyl-1-[(propan-2-ylamino)methyl]-6,7,8,9-tetrahydrodibenzofuran-2-ol], the IC50 is over 50 µM. Compound `CCOC(=O)N1CCN(C2=CC(=O)OC23CCCCC3)CC1` [4-(2-Oxo-1-oxa-spiro[4.5]dec-3-en-4-yl)-piperazine-1-carboxylic acid ethyl ester] returned an IC50 of over 50 µM. As for `COc1ccc(N2CCN(C(=O)c3cn(C)c(=O)c4c3c3ccccc3n4C)CC2)cc1` [4-[4-(4-methoxyphenyl)piperazin-1-yl]carbonyl-2,9-dimethyl-pyrido[3,4-b]indol-1-one], the half-inhibitory concentration (IC50) was over 50 µM.

In turn, `NC(=O)c1ccc(-n2nnnc2SCc2ccc(F)cc2)cc1` [4-[5-[(4-fluorobenzyl)thio]tetrazol-1-yl]benzamide] gave a half-maximal inhibitory concentration (IC50) of over 50 µM.

In turn, `CCN(CC)CCNC(=O)c1ccc(N)cc1` [4-amino-N-[2-(diethylamino)ethyl]benzamide;hydrochloride] displayed a 50% inhibitory concentration (IC50) of over 50 µM.

In general, IC50 refers to the concentration that gives 50% inhibition. Read a high IC50 as lower potency.
